Source: PubChem BioAssay AID1963958 (Molecular Pharmacology Branch, DTP, NCI, 2024)

Test system: MDA-MB-231 multicell spheroids, viability
Assay: Anticancer human tumor MDA-MB-231 cell line growth inhibition [PI3K];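 further: spheroids exposed to agents for seven days before reading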;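 on viability, T/C: percent of vehicle control luminescence with DMSO treated spheroids as 100%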
Conditions: for IC50: curve of first compound; for viability, T/C: stronger effect = lower value
Summary of the method: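 Viability of mixed-cell spheroids was determined after exposure to pairwise combinations, one partner being inavolisib, alpelisib, duvelisib or copanlisib. Highest tested concentration matched clinical Cmax where known and 10 microM where not, descending in half-log steps.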

[1] = second compound 0.0316 µM, first compound 0.0316 µM
[2] = second compound 0.0316 µM, first compound 0.1 µM
[3] = second compound 0.0316 µM, first compound 0.316 µM
[4] = second compound 0.0316 µM, first compound 1 µM
[5] = second compound 0.0316 µM, first compound 3.16 µM
[6] = second compound 0.0316 µM, first compound 10 µM
[7] = second compound 0.1 µM, first compound 0.0316 µM
[8] = second compound 0.1 µM, first compound 0.1 µM
[9] = second compound 0.1 µM, first compound 0.316 µM
[10] = second compound 0.1 µM, first compound 1 µM
[11] = second compound 0.1 µM, first compound 3.16 µM
[12] = second compound 0.1 µM, first compound 10 µM
[13] = second compound 0.316 µM, first compound 0.0316 µM
[14] = second compound 0.316 µM, first compound 0.1 µM
[15] = second compound 0.316 µM, first compound 0.316 µM
[16] = second compound 0.316 µM, first compound 1 µM
[17] = second compound 0.316 µM, first compound 3.16 µM
[18] = second compound 0.316 µM, first compound 10 µM
[19] = second compound 1 µM, first compound 0.0316 µM
[20] = second compound 1 µM, first compound 0.1 µM
[21] = second compound 1 µM, first compound 0.316 µM
[22] = second compound 1 µM, first compound 1 µM
[23] = second compound 1 µM, first compound 3.16 µM
[24] = second compound 1 µM, first compound 10 µM
[25] = second compound 3.16 µM, first compound 0.0316 µM
[26] = second compound 3.16 µM, first compound 0.1 µM
[27] = second compound 3.16 µM, first compound 0.316 µM
[28] = second compound 3.16 µM, first compound 1 µM
[29] = second compound 3.16 µM, first compound 3.16 µM
[30] = second compound 3.16 µM, first compound 10 µM
[31] = second compound 10 µM, first compound 0.0316 µM
[32] = second compound 10 µM, first compound 0.1 µM
[33] = second compound 10 µM, first compound 0.316 µM
[34] = second compound 10 µM, first compound 1 µM
[35] = second compound 10 µM, first compound 3.16 µM
[36] = second compound 10 µM, first compound 10 µM

## CC(Cn1ccc(-c2ccc(C#N)c(Cl)c2)n1)NC(=O)c1cc(C(C)O)[nH]n1 (stereo unspecified) + CC(Nc1ncnc2nc[nH]c12)c1cc2cccc(Cl)c2c(=O)n1-c1ccccc1
Second compound 0.0316 µM
  IC50: > 10000 nM
Second compound 0.1 µM
  IC50: > 10000 nM
Second compound 0.316 µM
  IC50: > 10000 nM
Second compound 1 µM
  IC50: > 10000 nM
Second compound 3.16 µM
  IC50: > 10000 nM
Second compound 10 µM
  IC50: < 31.6 nM
[1]
  viability, T/C: 100%
[2]
  viability, T/C: 95.7%
[3]
  viability, T/C: 99.6%
[4]
  viability, T/C: 98.5%
[5]
  viability, T/C: 96%
[6]
  viability, T/C: 82.3%
[7]
  viability, T/C: 92.9%
[8]
  viability, T/C: 98.3%
[9]
  viability, T/C: 97.9%
[10]
  viability, T/C: 95.2%
[11]
  viability, T/C: 92.4%
[12]
  viability, T/C: 78.4%
[13]
  viability, T/C: 81.9%
[14]
  viability, T/C: 93%
[15]
  viability, T/C: 95%
[16]
  viability, T/C: 88.5%
[17]
  viability, T/C: 87.9%
[18]
  viability, T/C: 75.7%
[19]
  viability, T/C: 70.6%
[20]
  viability, T/C: 79.4%
[21]
  viability, T/C: 78.4%
[22]
  viability, T/C: 79.5%
[23]
  viability, T/C: 72.2%
[24]
  viability, T/C: 64.5%
[25]
  viability, T/C: 61.3%
[26]
  viability, T/C: 61%
[27]
  viability, T/C: 61.4%
[28]
  viability, T/C: 56.2%
[29]
  viability, T/C: 56.9%
[30]
  viability, T/C: 49.2%
[31]
  viability, T/C: 47%
[32]
  viability, T/C: 44.3%
[33]
  viability, T/C: 47.8%
[34]
  viability, T/C: 45.5%
[35]
  viability, T/C: 42%
[36]
  viability, T/C: 36%

## CC1(C)CCC(Nc2ncc(C(F)(F)F)c(-c3c[nH]c4c(P(C)(C)=O)c(C#N)ccc34)n2)CN1 (stereo unspecified) + CC(Nc1ncnc2nc[nH]c12)c1cc2cccc(Cl)c2c(=O)n1-c1ccccc1
Second compound 0.0316 µM
  IC50: 31.6 nM
Second compound 0.1 µM
  IC50: 31.6 nM
Second compound 0.316 µM
  IC50: 31.6 nM
Second compound 1 µM
  IC50: < 31.6 nM
Second compound 3.16 µM
  IC50: < 31.6 nM
Second compound 10 µM
  IC50: < 31.6 nM
[1]
  viability, T/C: 46.4%
[2]
  viability, T/C: 37.8%
[3]
  viability, T/C: 41.4%
[4]
  viability, T/C: 53.5%
[5]
  viability, T/C: 60.6%
[6]
  viability, T/C: 5.54%
[7]
  viability, T/C: 46.3%
[8]
  viability, T/C: 38.5%
[9]
  viability, T/C: 40.7%
[10]
  viability, T/C: 51.6%
[11]
  viability, T/C: 55.6%
[12]
  viability, T/C: 5.27%
[13]
  viability, T/C: 45.7%
[14]
  viability, T/C: 39.4%
[15]
  viability, T/C: 42.5%
[16]
  viability, T/C: 48.6%
[17]
  viability, T/C: 54.2%
[18]
  viability, T/C: 6.2%
[19]
  viability, T/C: 43.9%
[20]
  viability, T/C: 34.7%
[21]
  viability, T/C: 38.6%
[22]
  viability, T/C: 49.4%
[23]
  viability, T/C: 49.6%
[24]
  viability, T/C: 4.82%
[25]
  viability, T/C: 39.8%
[26]
  viability, T/C: 37%
[27]
  viability, T/C: 42.2%
[28]
  viability, T/C: 44.9%
[29]
  viability, T/C: 36%
[30]
  viability, T/C: 4.74%
[31]
  viability, T/C: 38.4%
[32]
  viability, T/C: 34.6%
[33]
  viability, T/C: 36%
[34]
  viability, T/C: 33.2%
[35]
  viability, T/C: 35.5%
[36]
  viability, T/C: 3.53%

## Cn1nccc1Nc1nccc(-c2ccn(C(CO)c3ccc(Cl)c(F)c3)c(=O)c2)n1 (stereo unspecified) + CC(Nc1ncnc2nc[nH]c12)c1cc2cccc(Cl)c2c(=O)n1-c1ccccc1
Second compound 0.0316 µM
  IC50: 706 nM
Second compound 0.1 µM
  IC50: 512 nM
Second compound 0.316 µM
  IC50: 300 nM
Second compound 1 µM
  IC50: 117 nM
Second compound 3.16 µM
  IC50: < 31.6 nM
Second compound 10 µM
  IC50: < 31.6 nM
[1]
  viability, T/C: 80.1%
[2]
  viability, T/C: 68.8%
[3]
  viability, T/C: 56.8%
[4]
  viability, T/C: 46.4%
[5]
  viability, T/C: 38.6%
[6]
  viability, T/C: 27.9%
[7]
  viability, T/C: 75.3%
[8]
  viability, T/C: 70.2%
[9]
  viability, T/C: 50.6%
[10]
  viability, T/C: 44.3%
[11]
  viability, T/C: 36.4%
[12]
  viability, T/C: 27.1%
[13]
  viability, T/C: 79.3%
[14]
  viability, T/C: 62.3%
[15]
  viability, T/C: 48%
[16]
  viability, T/C: 40.1%
[17]
  viability, T/C: 35.5%
[18]
  viability, T/C: 26.8%
[19]
  viability, T/C: 64.8%
[20]
  viability, T/C: 50.1%
[21]
  viability, T/C: 39.4%
[22]
  viability, T/C: 36.4%
[23]
  viability, T/C: 33%
[24]
  viability, T/C: 22.1%
[25]
  viability, T/C: 45.9%
[26]
  viability, T/C: 38.8%
[27]
  viability, T/C: 28.5%
[28]
  viability, T/C: 24.8%
[29]
  viability, T/C: 25.2%
[30]
  viability, T/C: 21.2%
[31]
  viability, T/C: 36.5%
[32]
  viability, T/C: 27.3%
[33]
  viability, T/C: 25.7%
[34]
  viability, T/C: 20.8%
[35]
  viability, T/C: 22.9%
[36]
  viability, T/C: 16.8%
